Assay results taken from ChEMBL document CHEMBL1201862, “PubChem BioAssay data set” (2004).
Activity calls are given as the source filed them.

Columns and labels:
Cytochrome P450 2C19 = Cytochrome P450 2C19 (Homo sapiens, UniProt P33261); assay: Cytochrome panel assay with activity outcomes. Panel member name: p450-cyp2c19 Compounds with AC50 equal or less than 10 uM are considered active; assay type: functional; details: read-out: AC50
Cytochrome P450 2D6 = Cytochrome P450 2D6 (Homo sapiens, UniProt P10635);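 note: CYP2D6 member of a cytochrome P450 panel assay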
Chain of Cytochrome P450 2D6 (P10635 whole entry): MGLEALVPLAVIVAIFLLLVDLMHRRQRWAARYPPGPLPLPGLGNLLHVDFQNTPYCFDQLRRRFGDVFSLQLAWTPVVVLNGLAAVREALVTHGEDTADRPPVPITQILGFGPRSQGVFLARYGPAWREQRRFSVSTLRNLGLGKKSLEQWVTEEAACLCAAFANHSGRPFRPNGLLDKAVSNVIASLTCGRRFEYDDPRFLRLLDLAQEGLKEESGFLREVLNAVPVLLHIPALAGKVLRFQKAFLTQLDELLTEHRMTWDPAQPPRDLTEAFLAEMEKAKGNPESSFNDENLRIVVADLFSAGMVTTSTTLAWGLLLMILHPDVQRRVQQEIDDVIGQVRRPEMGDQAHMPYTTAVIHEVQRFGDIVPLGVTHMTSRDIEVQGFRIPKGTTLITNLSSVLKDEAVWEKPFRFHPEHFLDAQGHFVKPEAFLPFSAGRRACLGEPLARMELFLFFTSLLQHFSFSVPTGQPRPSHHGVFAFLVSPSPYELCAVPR

Cytochrome P450 1A2 = target: T1, Cytochrome P450 1A2 (Homo sapiens, UniProt P05177);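 note: PubChem cytochrome P450 panel assay, CYP1A2 panel member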
T1 sequence (P05177 whole entry): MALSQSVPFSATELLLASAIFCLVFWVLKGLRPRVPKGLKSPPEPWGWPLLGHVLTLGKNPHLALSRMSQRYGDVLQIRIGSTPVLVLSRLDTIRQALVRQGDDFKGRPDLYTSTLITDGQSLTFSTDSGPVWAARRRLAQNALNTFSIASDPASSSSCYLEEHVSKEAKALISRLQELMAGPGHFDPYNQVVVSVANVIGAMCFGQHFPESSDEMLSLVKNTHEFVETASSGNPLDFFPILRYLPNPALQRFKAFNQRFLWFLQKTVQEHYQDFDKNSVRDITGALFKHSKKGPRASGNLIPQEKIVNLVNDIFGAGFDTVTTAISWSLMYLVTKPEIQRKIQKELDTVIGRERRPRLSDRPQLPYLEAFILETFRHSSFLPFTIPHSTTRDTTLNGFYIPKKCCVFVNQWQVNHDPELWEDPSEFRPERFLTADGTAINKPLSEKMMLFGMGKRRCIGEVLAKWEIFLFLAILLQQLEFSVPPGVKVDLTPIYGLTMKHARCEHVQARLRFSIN

Cytochrome P450 3A4 = Cytochrome P450 3A4 (Homo sapiens, UniProt P08684);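 note: CYP3A4 tested as one member of a cytochrome P450 panel screen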
Chain of Cytochrome P450 3A4 (P08684 whole entry): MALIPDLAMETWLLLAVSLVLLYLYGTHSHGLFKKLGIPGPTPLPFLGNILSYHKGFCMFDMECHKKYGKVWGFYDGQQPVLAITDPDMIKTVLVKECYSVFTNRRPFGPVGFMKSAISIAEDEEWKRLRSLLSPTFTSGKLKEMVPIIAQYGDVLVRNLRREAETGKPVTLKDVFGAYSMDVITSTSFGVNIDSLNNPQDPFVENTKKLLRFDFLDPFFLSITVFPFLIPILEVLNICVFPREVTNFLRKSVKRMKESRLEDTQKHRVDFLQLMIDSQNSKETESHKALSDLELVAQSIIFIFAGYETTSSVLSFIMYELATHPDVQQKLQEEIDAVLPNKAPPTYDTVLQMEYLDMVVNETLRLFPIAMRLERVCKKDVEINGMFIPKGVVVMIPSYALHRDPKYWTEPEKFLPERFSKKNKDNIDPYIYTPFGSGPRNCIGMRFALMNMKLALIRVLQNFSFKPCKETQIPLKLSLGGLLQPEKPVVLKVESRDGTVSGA

[1] = Luminescence Cell-Based Dose Confirmation HTS to Identify Activators of 5'UTR Stem-Loop Driven Alpha-Synuclein mRNA Translation in H4 Neuroglioblastoma Cells. [Related pubchem assays: 1829 (Project Summary), 1814 (Primary HTS)]; assay type: functional
[2] = THP-1 cell cytotoxicity, dose response, cytotoxicity control for non-replicating M. tuberculosis project (AID 489025); assay type: functional
H4 = assay: Luminescence Cell-Based Dose Response HTS to Identify Activators of 5'UTR Stem-Loop Driven Prion Protein mRNA Translation in H4 Neuroglioblastoma Cells. [Related pubchem assays: 1829 (Project Summary), 1814 (Primary HTS)]; assay type: functional; details: Homo sapiens
cells [3] = assay type: functional
[4] = Luminescence Cell-Based Dose Response HTS to Identify Activators of Luciferase Translation or Activity in H4 […] Cells. [Related pubchem assays: 1829 (Project Summary), 1814 (Primary HTS)]; assay type: functional
[5] = target: Glyceraldehyde-3-phosphate dehydrogenase (Homo sapiens, UniProt P04406)
Chain of Glyceraldehyde-3-phosphate dehydrogenase (P04406 whole entry): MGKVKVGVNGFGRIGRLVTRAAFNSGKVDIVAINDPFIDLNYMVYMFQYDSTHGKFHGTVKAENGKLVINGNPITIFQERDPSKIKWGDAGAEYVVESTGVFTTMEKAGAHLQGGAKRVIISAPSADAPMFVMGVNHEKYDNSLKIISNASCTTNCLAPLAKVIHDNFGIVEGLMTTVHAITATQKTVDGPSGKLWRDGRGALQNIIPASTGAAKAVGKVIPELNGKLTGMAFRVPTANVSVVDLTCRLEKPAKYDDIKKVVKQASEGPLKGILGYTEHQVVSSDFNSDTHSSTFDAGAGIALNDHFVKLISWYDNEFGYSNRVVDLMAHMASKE

SN12K1 = assay: cells; assay type: functional; details: Homo sapiens
P388 = assay: cells; assay type: functional; details: Mus musculus
P388/ADR = assay: cells; assay type: functional; details: Mus musculus
[6] = target: T2, High affinity choline transporter 1 (Homo sapiens, UniProt Q9GZV3); assay: human choline transporter blockers, potency – cell-based, 5-point CRC, membrane potential dye, dose response (AID 504840); assay type: functional
T2 sequence (Q9GZV3 whole entry): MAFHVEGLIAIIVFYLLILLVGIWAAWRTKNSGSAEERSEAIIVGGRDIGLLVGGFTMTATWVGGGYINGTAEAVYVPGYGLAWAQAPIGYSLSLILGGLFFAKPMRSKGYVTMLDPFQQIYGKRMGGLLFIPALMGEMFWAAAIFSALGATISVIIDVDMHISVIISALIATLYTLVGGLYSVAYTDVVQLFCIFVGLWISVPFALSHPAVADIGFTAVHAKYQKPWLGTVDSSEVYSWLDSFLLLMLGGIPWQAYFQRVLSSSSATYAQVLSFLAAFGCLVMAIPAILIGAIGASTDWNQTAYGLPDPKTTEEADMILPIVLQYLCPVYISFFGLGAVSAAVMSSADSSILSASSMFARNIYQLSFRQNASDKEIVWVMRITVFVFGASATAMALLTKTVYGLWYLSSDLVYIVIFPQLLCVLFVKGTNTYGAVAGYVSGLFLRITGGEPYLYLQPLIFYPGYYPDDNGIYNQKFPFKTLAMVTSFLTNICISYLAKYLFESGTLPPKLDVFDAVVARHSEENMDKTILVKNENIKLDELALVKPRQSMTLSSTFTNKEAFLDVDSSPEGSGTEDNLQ

[7] = viability of uninfected HEp-2 cells – cell-based, HTS, cytotoxicity control for RSV inhibitor project, dose response (AID 2410); assay type: functional; details: human respiratory syncytial virus
[8] = target: T3, Calpain-2 catalytic subunit (Sus scrofa, UniProt P43367); assay: m-calpain protease blockers, concentration series – biochemical, fluorogenic peptide substrate, dose response (AID 1420); assay type: functional
T3 sequence (P43367 whole entry): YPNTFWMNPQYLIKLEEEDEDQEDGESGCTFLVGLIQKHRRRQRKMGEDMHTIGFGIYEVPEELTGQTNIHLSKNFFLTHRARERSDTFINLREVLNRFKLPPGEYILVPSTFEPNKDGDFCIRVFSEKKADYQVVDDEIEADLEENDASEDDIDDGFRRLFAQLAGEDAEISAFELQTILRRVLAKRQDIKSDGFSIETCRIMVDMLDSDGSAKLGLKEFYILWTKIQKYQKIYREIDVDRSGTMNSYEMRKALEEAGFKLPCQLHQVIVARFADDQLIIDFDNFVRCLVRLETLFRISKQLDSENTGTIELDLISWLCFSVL

[9] = target: T4, Nuclear receptor subfamily 0 group B member 1 (Homo sapiens, UniProt P51843); assay type: functional, cell-based;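 note: HEK293T cells transfected with SF-1 and DAX-1 plus StAR promoter luciferase reporter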
T4 sequence (P51843 whole entry): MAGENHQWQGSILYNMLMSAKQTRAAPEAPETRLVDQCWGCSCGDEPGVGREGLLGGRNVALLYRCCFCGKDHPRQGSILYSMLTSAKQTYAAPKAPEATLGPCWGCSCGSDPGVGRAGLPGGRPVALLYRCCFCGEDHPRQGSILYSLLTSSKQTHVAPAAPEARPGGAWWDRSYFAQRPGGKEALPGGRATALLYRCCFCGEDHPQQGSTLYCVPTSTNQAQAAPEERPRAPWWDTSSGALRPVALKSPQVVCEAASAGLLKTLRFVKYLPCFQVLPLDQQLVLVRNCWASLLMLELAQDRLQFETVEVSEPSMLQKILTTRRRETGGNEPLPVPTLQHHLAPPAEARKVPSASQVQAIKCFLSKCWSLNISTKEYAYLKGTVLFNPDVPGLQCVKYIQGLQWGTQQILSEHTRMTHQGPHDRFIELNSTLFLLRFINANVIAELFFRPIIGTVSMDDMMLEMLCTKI

cells [10] = assay type: functional, cell-based

Chain of Cytochrome P450 2C19 (P33261 whole entry): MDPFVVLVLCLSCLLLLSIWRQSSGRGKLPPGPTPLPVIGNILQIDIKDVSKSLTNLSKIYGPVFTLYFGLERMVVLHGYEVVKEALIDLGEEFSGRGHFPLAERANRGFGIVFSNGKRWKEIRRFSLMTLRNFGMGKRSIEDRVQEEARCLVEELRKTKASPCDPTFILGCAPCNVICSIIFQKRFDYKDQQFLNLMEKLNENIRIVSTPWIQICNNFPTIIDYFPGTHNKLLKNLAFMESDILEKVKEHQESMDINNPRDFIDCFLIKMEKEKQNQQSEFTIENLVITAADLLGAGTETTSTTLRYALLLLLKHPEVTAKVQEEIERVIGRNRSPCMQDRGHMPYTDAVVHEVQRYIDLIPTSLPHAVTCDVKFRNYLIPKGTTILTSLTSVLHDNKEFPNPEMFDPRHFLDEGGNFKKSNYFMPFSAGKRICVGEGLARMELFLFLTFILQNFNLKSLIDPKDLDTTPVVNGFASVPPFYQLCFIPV

For `O=C(c1cccc(F)c1)N1CCC2(CC1)CCN(c1ncccn1)CC2`, the AC50 (Cytochrome P450 2C19) was 39.8 µM (inconclusive), the AC50 (Cytochrome P450 2D6) was 15.8 µM (inconclusive) and the AC50 (Cytochrome P450 1A2) was 10 µM (inconclusive). The AC50 (Cytochrome P450 3A4) was “inconclusive”.
For `COc1ccc(NC(=O)c2cnc(SC)nc2)cc1`, the EC50 [1] was > 120 µM (not active), the CC50 [2] was 18.1 µM (active) and the EC50 (H4) was 16 µM (active). For the same compound, the IC50 (cells [3]) was 18.4 µM (active) and the EC50 [4] was 14.8 µM (active).
With `CN(C)C1=C(Cl)C(=O)N(c2ccc(Cl)nc2)C1=O` the IC50 [5] was > 50 µM (inconclusive).
For `Nc1[nH]cnc2ncnc1-2` [ADENINE], the GI50 (SN12K1) was 213 µM (inactive), the GI50 (P388) was 64.9 µM (inactive) and the GI50 (P388/ADR) was 79.3 µM (inactive).
For `CCCc1cc2c(=O)c(-c3ccccn3)c(C)oc2cc1O`, the IC50 [6] was 12.3 µM (active).
With `O=C(c1ccc2c(c1)OCCO2)C1CCN(S(=O)(=O)c2ccccc2F)CC1` the AC50 (Cytochrome P450 2D6) was 0.0316 µM (inconclusive), the AC50 (Cytochrome P450 1A2) was 5.01 µM (inconclusive) and the AC50 (Cytochrome P450 3A4) was “inconclusive”. For the same compound, the CC50 [7] was > 50 µM (active).
In the case of `Nc1ccn([C@@H]2C=C(CO)[C@@H](O)[C@H]2O)c(=O)n1`, the GI50 (SN12K1) is reported as 0.104 µM (active), the GI50 (P388) is reported as 0.0752 µM (active) and the GI50 (P388/ADR) is reported as 0.0619 µM (active).
For `Cc1ccc(-c2nnc(C)c(N3CCCC3)n2)cc1`, the IC50 (cells [3]) was 13.2 µM (active).
In the case of `CC(=O)NC1=C[C@@H]([C@H]2COC(C)(C)O2)OC1=O`, the GI50 (SN12K1) is reported as > 100 µM (inactive), the GI50 (P388) is reported as > 100 µM (inactive) and the GI50 (P388/ADR) is reported as > 100 µM (inactive).
In the case of `Cc1nc2ccccc2[nH]c(=O)c1=NNc1ccc([N+](=O)[O-])cc1`, the IC50 [8] is reported as 12.3 µM (not active).
For `O=C1C(Cl)=C(N2CCN(c3ccccc3)CC2)C(=O)N1c1ccc(Cl)nc1`, the IC50 [5] was > 50 µM (inconclusive).
For `Cc1cc(C)nc(SC2CC(=O)N(c3ccc(C)c(C)c3)C2=O)n1` (stereo unspecified), the CC50 [2] was > 40 µM (active).
With `N=C(N)Nc1ncccc1[N+](=O)[O-]` the GI50 (SN12K1) was > 100 µM (inactive), the GI50 (P388) was 40.2 µM (inactive) and the GI50 (P388/ADR) was 32.9 µM (inactive).
For `COc1cc(OC)c2c(-c3cccc(-c4ccc(NC(C)=O)cc4)c3)cc(=O)oc2c1`, the IC50 [9] was > 67.5 µM (inactive) and the IC50 (cells [10]) was > 67.5 µM (inactive).
In the case of `FC(F)(F)c1ccccc1-c1cc(NCc2ccccc2)ncn1`, the AC50 (Cytochrome P450 2D6) is reported as 39.8 µM (inconclusive) and the AC50 (Cytochrome P450 3A4) is reported as “inconclusive”.
For `CC(C)Cn1c(-c2ccc(Br)cc2)cnc1S`, the IC50 [8] was 12.1 µM (active).
